Reference: patent publication US20200022944A1, “COMPOSITION OR MEDICAL FOOD TO EXTRACT THE DIETARY IRON AND BOOST ITS BIOAVAILABILITY FOR IRON DEFICIENCY (ID) AND ID-ANEMIA” (TIXUPHARMA DI CARLO GHISALBERTI, priority 2017, published 2020)

How the values were obtained:
[1] = tested on: rodents conducted to anemia by iron starvation; assay: Murine model of anemic therapy (iron-deficient diet); assay type: in vivo, female Wistar rats; conditions: normalized-iron vegetal diet comprising the substance after ID diet, compared to both controls
Description: This in vivo murine study sized the capacity of maltol/ethyl maltol compounded into food to enhance iron uptake in rodents conducted to anemia by iron starvation. For that purpose, 6-wk old female Wistar rats were fed for 28 days a iron-deficient diet (Fe:12 mg/kg), labeled IDD1. A control group received standard diet (Fe:45 mg/kg) (Ctrl1) along the entire experiment. In the second stage, IDD1 rats were randomized for 26 days test diets conceived as follows: the M3 and EM3 groups received cookies with 3% of maltol or 3% ethyl maltol, respectively. The M/EMO group was fed with cookies without maltol/ethyl maltol; while the IDD2 group was maintained at Fe-deficient diet. […] Cookies were produced from corn flour and vegetal fat, and backed at 180° C. for 15 minM, whereas in M3 and EM3 groups a portion (3%) of corn flour was replaced with maltol and ethyl maltol. Animals were kept in room with 12 h light/dark cycle, temperature of 24° C. […], and drinking water ad libitum. […] Serum iron was measured at 623 nm, haemoglobin content (Hb) total iron binding capacity (TIBC), erythrocytes, haemoglobin (Hb), hematocrit (Ht), mean corpuscular volume (MCV), mean corpuscular haemoglobin (MCH), and MCH concentration (MCHC) assessed according to Regula et al. Ann Agric Environ Med 2016;23(2):310-4. Iron transferrin saturation (TSAT) was calculated by the formula: TSAT=(Fe/TIBC)×[…].

[2] = In vitro digestion model: extraction of dietary non-heme iron from vegetal foods; conditions: for yield of extracted iron from vegetal food: canned soybean, red beans, peas, 1 ml 10 mM, versus water control; for surplus of yields of gastroactive (GA) model over gastropassive (GP) condition: with versus without classic digestive enzymes
Description: The method assessed the extraction of dietary non-heme iron by maltol or ethyl maltol in simulated digestion of vegetal foods, with/without digestive enzymes. In brief, samples (10 g) of vegetable foods, viz. canned soybean, red beans and peas were smashed in mortar with 5 ml water. Specimen were combined in 50 ml tubes supplemented with HCl solution (pH 2.5) of mix of classic digestive enzymes consisting in: 2 mg pepsin 1:3000; 0.5 mg lipase 200 FIP/g; and bile enzymes, i.e. 2.5 mg bovine bile extract; 1.25 pancreatin extract 4:1 in “gastroactive” model (“GA”). A parallel test named “gastropassive” use non enzymes. Tube were added with 1 ml maltol/ethyl maltol 10 mM, or water in control, and underwent 2 hours of slow motion (60 o/min) at controlled temperature. The pH was finally adjusted to 6-7 (1N NaOH) and the tubes remained on oscillation for further 30 min. The digests were collected, filtered at 100 μm mesh, diluted and read at 405 nm. Results expressed as % recovery of Fe calculated against a calibration curve) are plotted in FIG. 3.

Caco-2 cells = assay: Caco-2 monolayer absorption: ferritin formation; conditions: 1 h contact at 37° C., 23 h re-incubation; Fe 200 μM
Description: Caco-2 cells cultivated and used at passages 24-50 in culture medium, serum-free MEM, were exposed to test substances in culture medium.
(§1) (a) maltol (MAL) and ethyl maltol (EMAL) at 10 mM concentration;
(§2) (c) iron sources: FAC (Fe^III) and ferrous sulfate (FS, Fe^III) at 1:10 eq/eq with respect to AA, at 1:20 eq/eq with respect to CA, and at 1:5 eq/eq with respect to MAL.
(§3) The final Fe concentration was fixed 200 μM with the other molar ratio as listed above, while the solution were then neutralized to pH 6-7.
One hour contact at 37° C. was used for similarity of duodenal contact time. After incubation 1 h the medium was aspirated, cell monolayer washed 3× PBS-EDTA and fresh MEM added. Cells were re-incubated for 23 h to allow ferritin formation, lysed with 400 μl of MPER® lysis buffer, lysate collected, centrifuged for 5′ at 16,000×g, and supernatant collected for analysis. The solutions were filter-sterilized (0.2 μm syringe filter) prior dilution in the culture medium.
Ferritin content of Caco-2 cells was determined by an ELISA kit, results corrected for the baseline values and expressed in relation to total cell protein in ng ferritin/mg cell protein.

[3] = Cell-free in vitro competition test for Fe(III) versus antinutrients; assay type: physicochemical; conditions: for recovery of Fe as 1:3 Fe-ligand complex in competition with non-cathecolic polyphenols (avg.): average; for recovery of Fe as 1:3 Fe-ligand complex in competition with non-cathecolic polyphenols (avg.) / recovery of Fe as 1:3 Fe-ligand complex in competition with oxalates / recovery of Fe as 1:3 Fe-ligand complex in competition with phosphate: vs citrate ref standard of 100% recovery; for recovery of Fe as 1:3 Fe-ligand complex in competition with oxalates / recovery of Fe as 1:3 Fe-ligand complex in competition with phosphate: sequential pH 6/2.5/6.5, CH2Cl2 extract read at 405 nm; for iron competition versus phytate and catecholic polyphenols: without enzymatic co-treatment
Description: The method evaluates the competitive affinity for Fe(III) of maltol/ethyl maltol versus antinutrients, i.e. the iron sequestering agents occurring in food, in a 3-step method which adopts a sequential pH 6/2.5/6.5 mimic the pHs occurring in stomach at fast, during gastro digestion and in duodenum, respectively. Stock solution at 10 mM conc. were prepared by dissolving in water the following reagents: (a) antinutrient series: EDTA (EDTA=negative control), ellagic acid (ELL), gallic acid (GAL), hesperidin (HES), naringin (NAR), monosodium oxalate (OXA), disodium phosphate (PHO), quercetin (QUE), rutin (RUT), tannic acid (TAN), phytic acid sodium salt (PHY); wherein the cathecolic polyphenols (CPP) are presented as pooled (b) maltol (MAL) and ethyl maltol (EMAL); […] In brief, in 15-ml tubes were combined 100 μl of 10 mM FAC (1 μmol); 1 ml of 10 mM CaCl2 (10 μmol); 1 ml of 10 mM 3-hydroxy-4-pyrone (10 μmol); 1 ml of each antinutrient at 10 mM (10 μmol); and 2 ml of water to 5 ml final volume. No antinutrients were introduced in the positive control. Tubes were oscillated at 30 rpm for 2.5 hours, of which: 1 hour at initial pH 6-6.5; 1 hour at pH 2-2.5 (by 50 μl 1N HCl), and final 30 min. at pH around 6.5 (by 50 μl 1N NaOH). The tubes were then added with 2 ml di CH2Cl2 and shacked for 2 min. […] Residues were taken up with 2 ml water and read at 405 nm. Absorbance calibration: r=0.30 and linear correlation within the 40-4 μM range (r2=1; […] on 0-intercept).

[4] = tested on: inflammatory bowel disease; conditions: animal model of IBD; Minaiyan et al. 2012; cited from earlier work
[5] = pH 6
Description: as §1, §2, §3
Total iron was determined by inductively-coupled plasma optical emission spectrometry, where both ICP-OES standards and samples were diluted in 0.5% HNO3 in 0-1000 ppb range. Physical classification of iron was assessed after centrifugation (10,000×g, 5 min.), the supernatant was ultrafiltrated with 3kDa MWCO filter 10,000×g, 10 min. Phase distribution was calculated as: iron microparticulate (total Fe−Fe in supernatant), iron nanoparticulate (Fe ultrafiltrate−Fe in supernatant) and soluble iron (Fe ultrafiltrate/total Fe).

| Compound | recovery of iron and hematologic levels [1] | yield of extracted iron from vegetal food [2] | surplus of yields of gastroactive (GA) model over gastropassive (GP) condition [2] | ferritin formation in Caco-2 cells (Caco-2 cells) | recovery of Fe as 1:3 Fe-ligand complex in competition with non-cathecolic polyphenols (avg.) [3] | recovery of Fe as 1:3 Fe-ligand complex in competition with oxalates [3] | recovery of Fe as 1:3 Fe-ligand complex in competition with phosphate [3] | iron competition versus phytate and catecholic polyphenols [3] | therapeutic dosage (ED50) [4] | iron solubility / phase distribution [5] |
| --- | --- | --- | --- | --- | --- | --- | --- | --- | --- | --- |
| CCc1occc(=O)c1O [ethyl maltol] | faster recovery of iron and hematologic levels | increased the yield of extracted iron from vegetal food | about 10% | produced soluble iron utilized by enteric cells for ferritin synthesis | 95% | 89% | 98% | limited efficiency | – | – |
| Cc1occc(=O)c1O [maltol] | faster recovery of iron and hematologic levels | increased the yield of extracted iron from vegetal food | about 10% | produced soluble iron utilized by enteric cells for ferritin synthesis | 95% | 89% | 98% | limited efficiency | 140-240 mg/kg bw | retain the Fe(III) solubility at supplemental levels |
